Measured values from PubChem BioAssay (NCI).
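Assay format: 96-well plates, 48-hour exposure. At the TGI there is no net growth.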

Assays:
Test in all cases: NCI-60 cell line screen, 48 h
MDA-MB-231 breast = tested on: MDA-MB-231 breast
MCF7 breast = tested on: MCF7 breast
HS 578T breast = tested on: HS 578T breast
OVCAR-5 ovarian = tested on: OVCAR-5 ovarian
PC-3 prostate = tested on: PC-3 prostate
SR leukemia = tested on: SR leukemia
IGROV1 ovarian = tested on: IGROV1 ovarian
SK-OV-3 ovarian = tested on: SK-OV-3 ovarian
OVCAR-4 ovarian = tested on: OVCAR-4 ovarian
NCI-H460 lung = tested on: NCI-H460 lung
COLO 205 colon = tested on: COLO 205 colon
HT29 colon = tested on: HT29 colon
MOLT-4 leukemia = tested on: MOLT-4 leukemia
U251 CNS = tested on: U251 CNS
OVCAR-3 ovarian = tested on: OVCAR-3 ovarian
SNB-75 CNS = tested on: SNB-75 CNS
KM12 colon = tested on: KM12 colon
TK-10 renal = tested on: TK-10 renal
A549 NSCLC = tested on: A549 NSCLC
HOP-62 NSCLC = tested on: HOP-62 NSCLC
M14 melanoma = tested on: M14 melanoma
SN12C renal = tested on: SN12C renal
HCT-15 colon = tested on: HCT-15 colon
UACC-257 melanoma = tested on: UACC-257 melanoma
NCI-H522 lung = tested on: NCI-H522 lung
SNB-19 CNS = tested on: SNB-19 CNS
BT-549 breast = tested on: BT-549 breast
RXF 393 renal = tested on: RXF 393 renal
786-0 renal = tested on: 786-0 renal
UO-31 renal = tested on: UO-31 renal
DU-145 prostate = tested on: DU-145 prostate
CCRF-CEM leukemia = tested on: CCRF-CEM leukemia
SK-MEL-28 melanoma = tested on: SK-MEL-28 melanoma
UACC-62 melanoma = tested on: UACC-62 melanoma
CAKI-1 renal = tested on: CAKI-1 renal
LOX IMVI melanoma = tested on: LOX IMVI melanoma
SW-620 colon = tested on: SW-620 colon
SK-MEL-5 melanoma = tested on: SK-MEL-5 melanoma
MDA-N = tested on: MDA-N
SF-268 CNS = tested on: SF-268 CNS
SK-MEL-2 melanoma = tested on: SK-MEL-2 melanoma
T-47D breast = tested on: T-47D breast
SF-295 CNS = tested on: SF-295 CNS
SF-539 CNS = tested on: SF-539 CNS
HCT-116 colon = tested on: HCT-116 colon
MALME-3M melanoma = tested on: MALME-3M melanoma
EKVX NSCLC = tested on: EKVX NSCLC
RPMI-8226 leukemia = tested on: RPMI-8226 leukemia
ACHN renal = tested on: ACHN renal
K-562 leukemia = tested on: K-562 leukemia
A498 renal = tested on: A498 renal
HOP-92 NSCLC = tested on: HOP-92 NSCLC
MDA-MB-435 = tested on: MDA-MB-435
OVCAR-8 ovarian = tested on: OVCAR-8 ovarian
NCI-H23 lung = tested on: NCI-H23 lung
NCI/ADR-RES ovarian = tested on: NCI/ADR-RES ovarian

CC(C)(C)c1ccc(O)c(CN(Cc2c(O)ccc3ccccc23)C2CCCCC2)c1
TGI (MDA-MB-231 breast): 30.6 µM | TGI (MCF7 breast): 31.9 µM | TGI (HS 578T breast): 84.3 µM | TGI (OVCAR-5 ovarian): 32.4 µM | TGI (PC-3 prostate): 28.5 µM | TGI (SR leukemia): 52.2 µM | TGI (IGROV1 ovarian): 32.7 µM | TGI (SK-OV-3 ovarian): 58.6 µM | TGI (OVCAR-4 ovarian): 58.6 µM | TGI (NCI-H460 lung): 30.4 µM | TGI (COLO 205 colon): 29.3 µM | TGI (HT29 colon): 31.6 µM | TGI (MOLT-4 leukemia): 54.9 µM | TGI (U251 CNS): 29.4 µM | TGI (OVCAR-3 ovarian): 34.3 µM | TGI (SNB-75 CNS): 32.3 µM | TGI (KM12 colon): 39.6 µM | TGI (TK-10 renal): 29.2 µM | TGI (A549 NSCLC): 48.9 µM | TGI (HOP-62 NSCLC): 36.9 µM | TGI (M14 melanoma): 25.7 µM | TGI (SN12C renal): 33.1 µM | TGI (HCT-15 colon): 31 µM | TGI (UACC-257 melanoma): 29.3 µM | TGI (NCI-H522 lung): 28.9 µM | TGI (SNB-19 CNS): 43.9 µM | TGI (BT-549 breast): 34.4 µM | TGI (RXF 393 renal): 33.6 µM | TGI (786-0 renal): 29.2 µM | TGI (UO-31 renal): 29.2 µM | TGI (DU-145 prostate): 60.9 µM | TGI (CCRF-CEM leukemia): > 100 µM | TGI (SK-MEL-28 melanoma): 46 µM | TGI (UACC-62 melanoma): 30.1 µM | TGI (CAKI-1 renal): 32.2 µM | TGI (LOX IMVI melanoma): 23.9 µM | TGI (SW-620 colon): 85.2 µM | TGI (SK-MEL-5 melanoma): 30.2 µM | TGI (MDA-N): 29.3 µM | TGI (SF-268 CNS): 30.9 µM | TGI (SK-MEL-2 melanoma): 31.3 µM | TGI (T-47D breast): 44.3 µM | TGI (SF-295 CNS): 38.1 µM | TGI (SF-539 CNS): 30.8 µM | TGI (HCT-116 colon): 30.9 µM | TGI (MALME-3M melanoma): 31.9 µM | TGI (EKVX NSCLC): 30 µM | TGI (RPMI-8226 leukemia): > 100 µM | TGI (ACHN renal): 33.3 µM | TGI (K-562 leukemia): 52.1 µM | TGI (A498 renal): 37.6 µM | TGI (HOP-92 NSCLC): 30.7 µM | TGI (MDA-MB-435): 52.6 µM | TGI (OVCAR-8 ovarian): 31.8 µM | TGI (NCI-H23 lung): 35.3 µM | TGI (NCI/ADR-RES ovarian): 32.4 µM
